Experimental data as given in US4268630A, “Microbiological production of ketones from C3 -C6 alkanes” (priority 1979, dated 1981).

Key:
[1] = tested on: Methylobacter capsulatus Y (NRRL B-11,201); test: Oxidation of sec-alcohols to ketones by resting cell suspension; assay type: cell-based
Description: (§1) The pH of the nutrient medium was adjusted to 7.0 by the addition of acid or base and 50 ml. samples of the nutrient medium were charged into a plurality of 300 ml. shaker flasks. The shaker flasks were inoculated with an inoculating loop of cells from an agar plate containing homogeneous colonies of the microorganisms on the plate (the purity of the isolates was confirmed by microscopic examination). The isolates had been maintained on methanol (0.4% V/V) agar plates or on agar plates under an atmosphere of methane and air having a 1:1 V/V gas ratio which had been transferred every two weeks. For growth on methanol, the medium was supplemented with 0.4% methanol. For growth on methane, the gaseous phase of the inoculated flasks was replaced with a gas mixture comprised on methane and air having a ratio of 1:1 on a V/V basis. The inoculated flasks were sealed air-tight and were incubated on a rotary shaker of orbital radius 2.5 cm. at 250 rpm and at 30° C. for two days until turbidity in the medium had developed. The cells were harvested by centrifugation at 10,000×g. at 4° C. for 30 minutes. The cell pellet was washed twice with a 0.05 M phosphate buffer at a pH of 7.0 (containing 0.02 M MgCl2). The washed cells were then suspended in a 0.05 M phosphate buffer at pH 7.0.
(§2) A 0.5 ml. sample of each washed cell suspension (2 mg. cells) was put into 10 ml. vials at 4° C. which were sealed with a rubber cap. The gaseous phase of the vials was removed with vacuum and then was replaced with a gas mixture of the substrate reactant (i.e., alkane or secondary alcohol) and oxygen at a 1:1 V/V ratio. (In the case of a liquid substrate, i.e., secondary alcohol, 10 μl of the substrate was put in the 10 ml. vials). […] Samples of product (1-3 μl) were withdrawn periodically with a microsyringe and the products were analyzed by gas chromatography (ionization flame detector column).
(§3) The procedure in Example 1 was repeated wherein a plurality of the methane-utilizing methylotrophic microorganisms were each grown aerobically in a nutrient medium containing methane as the alcohol dehydrogenase enzyme inducer and as the major carbon and energy source for growth. The cells were harvested and washed as described in Example 1. The resting microbial cells of the induced methane-grown methane-utilizing methylotrophic microorganisms were then contacted with C3 -C6 secondary alcohols in a buffered solution by the procedure of Example 1.
(§4) In this example, the procedure in Example 1 was repeated except that a plurality of methane-utilizing methylotrophic microorganisms were each aerobically grown in a methanol-containing nutrient medium instead of a methane-containing medium. The nutrients in the medium were the same as indicated in Example 1 except that 0.4% V/V methanol was used as the alcohol dehydrogenase inducer and major source of carbon and energy for growth. Following growth, the cells were harvested and washed as described in Example 1. The resting cells of the induced methanol-grown methylotrophic microorganisms were then contacted with secondary alcohols in a buffered solution by the procedure described in Example 1.

[2] = tested on: Methylococcus capsulatus, Texas (ATCC 19069); test: as above; assay type: cell-based
Description: as §1, §2, §3, §4

[3] = tested on: Methylocystis parvus OBBP (NRRL B-11,198); test: as above; assay type: cell-based
Description: as §1, §2, §3, §4

[4] = tested on: Methylomonas methanica S1 (NRRL B-11,199); test: as above; assay type: cell-based
Description: as §1, §2, §3, §4

Pichia sp. NRRL-Y-11328 = test: Oxidation of sec-alcohols to ketones by cell suspensions of yeasts; assay type: cell-based
[5] = tested on: Kloeckera sp. Strain A2 (NRRL Y-11,420); test: as above; assay type: cell-based
[6] = tested on: cell extracts of Candida utilis ATCC 26,387; test: NAD+-dependent oxidation of secondary alcohols by cell extracts of yeasts; assay type: biochemical; conditions: for Conversion Rate, secondary alcohol to methylketone: cell extracts, grown on methanol, NAD+, gas chromatography
[7] = tested on: cell extracts of Pichia sp. NRRL Y-11,328; test: as above; assay type: biochemical; conditions: grown on methanol, gas chromatography
[8] = tested on: secondary alcohol dehydrogenase (SADH); test: Activity of purified secondary alcohol dehydrogenase (inhibition, substrate specificity, Km); assay type: biochemical, Pseudomonas sp. ATCC 21439; conditions: for relative percent rate of oxidation: 2-butanol = 100%
Description: Secondary alcohol dehydrogenase (SADH) from an obligate methanol utilizer, Pseudomonas sp. ATCC 21439 was purified as follows. […] 0.05 M sodium phosphate buffer, pH 7.0 with 0.5 mM dithiothretol (buffer A) and were disrupted sonically (5×1 min.). The crude extract was separated by centrifugation. The crude extract was heat-treated at 50° C. in a water bath for 10 minutes. The resulting precipitate was removed by centrifugation. To the supernatant solution, 25 ml of protamine sulfate solution (2% solution in 0.1 M Tris base) was added dropwise with continuous stirring. After standing for 30 minutes, the extract was centrifuged. The supernatant solution was fractionated with solid ammonium sulfate. The material precipitating between 30 and 60% saturation was collected and was dialized overnight against buffer A. The The dialized material was applied to a DEAE-cellulose column (3 cm by 35 cm) that had been equilibrated with buffer A. The secondary alcohol dehydrogenase activity was eluted in the void volume. This DEAE-cellulose eluate was concentrated by ammonium sulfate fractionation. Material precipitating between 30 and 50% ammonium sulfate saturation was collected by centrifugation and dialyzed overnight against A. This fraction was further washed and filtered through an Amicon unit with XM 50 membrane. The concentrated fraction (6 ml) inside the Amicon unit was applied to an Affi-Gel Blue column (0.8 cm×18 cm) which had been equilibrated with buffer A for affinity chromatography. The column was washed overnight with buffer A (0.18 ml./min.) and then was eluted with buffer A containing 5 mM NAD. Each 1 ml. fraction was collected.
The purified secondary alcohol dehydrogenase enzyme (SADH) may be used directly for converting C3 -C6 secondary alcohols to the corresponding methyl ketones by the procedures described above; however, a source of NAD^+ must be added to the reaction medium. One can determine the NAD-linked secondary alcohol dehydrogenase activity with a fluorescence spectrophotometer (Perkin Elmer, Model MPF 44A) by following the formation of reduced NAD (Ex 340 nm, Em 460 nm). The assay system (3 ml.) will typically contain: sodium phosphate buffer pH 7.0, 150 μmol; NAD 1.0 μmol; a given amount of enzyme preparation; and 20 μmol secondary alcohol. The reaction is started by the addition of secondary alcohol. One unit of SADH enzyme activity represents the reduction of one nmole NAD per minute.
The effect of metal-chelating agents and thioreagents on the activity of the purified SADH enzyme were studied. […] The possibility of ethanol or n-propanol as an inhibitor was studied.

SMILES | Conversion Rates, sec-alcohol to methyl ketone ([1]; cells grown on methanol) [μmoles/hr/mg protein] | Conversion Rates, sec-alcohol to methyl ketone ([1]; resting cells grown on methane) [μmoles/hr/mg protein] | Conversion Rates, sec-alcohol to methyl ketone ([2]; cells grown on methanol) [μmoles/hr/mg protein] | Conversion Rates, sec-alcohol to methyl ketone ([2]; resting cells grown on methane) [μmoles/hr/mg protein] | Conversion Rates, sec-alcohol to methyl ketone ([3]; cells grown on methanol) [μmoles/hr/mg protein] | Conversion Rates, sec-alcohol to methyl ketone ([3]; resting cells grown on methane) [μmoles/hr/mg protein] | Conversion Rates, sec-alcohol to methyl ketone ([4]; cells grown on methanol) [μmoles/hr/mg protein] | Conversion Rates, sec-alcohol to methyl ketone ([4]; resting cells grown on methane) [μmoles/hr/mg protein] | Conversion Rate, sec-alcohol to ketone (Pichia sp. NRRL-Y-11328; growth substrate Ethanol) | Conversion Rate, sec-alcohol to ketone (Pichia sp. NRRL-Y-11328; growth substrate Methanol) | Conversion Rate, sec-alcohol to ketone (Pichia sp. NRRL-Y-11328; growth substrate Methylamine) | Conversion Rate, sec-alcohol to ketone (Pichia sp. NRRL-Y-11328; growth substrate Methylformate) | Conversion Rate, sec-alcohol to ketone (Pichia sp. NRRL-Y-11328; growth substrate Propylamine) | Conversion Rate, sec-alcohol to ketone ([5]; growth substrate Ethanol) | Conversion Rate, sec-alcohol to ketone ([5]; growth substrate Methanol) | Conversion Rate, sec-alcohol to ketone ([5]; growth substrate Methylamine) | Conversion Rate, sec-alcohol to ketone ([5]; growth substrate Methylformate) | Conversion Rate, sec-alcohol to ketone ([5]; growth substrate Propylamine) | Conversion Rate, secondary alcohol to methylketone [6] [μmoles/hr/mg Protein] | Conversion Rate, secondary alcohol to methylketone [7] [μmoles/hr/mg Protein] | further results
CCCCC(C)O (stereo not shown) [2-Hexanol, 2-hexanol] | 0.12 | 0.1 | 1.3 | 1.0 | 0.05 | 0.065 | 0.04 | 0.01 | 0.28 μmoles/hr/mg of protein | 0.50 μmoles/hr/mg of protein | 0.31 μmoles/hr/mg of protein | 0.48 μmoles/hr/mg of protein | 0.21 μmoles/hr/mg of protein | 0.12 μmoles/hr/mg of protein | 0.25 μmoles/hr/mg of protein | 0.10 μmoles/hr/mg of protein | 0.28 μmoles/hr/mg of protein | 0.11 μmoles/hr/mg of protein | 0.45 | 0.60 | substrate specificity of purified SADH (in words) [8]: lower rate; relative percent rate of oxidation [8]: 2%
CCCC(C)O (stereo not shown) [2-Pentanol, 2-pentanol] | 0.60 | 0.5 | 3.5 | 2.5 | 0.82 | 0.80 | 0.45 | 0.25 | 1.0 μmoles/hr/mg of protein | 1.2 μmoles/hr/mg of protein | 0.72 μmoles/hr/mg of protein | 0.98 μmoles/hr/mg of protein | 0.60 μmoles/hr/mg of protein | 1.0 μmoles/hr/mg of protein | 1.2 μmoles/hr/mg of protein | 1.0 μmoles/hr/mg of protein | 1.2 μmoles/hr/mg of protein | 0.92 μmoles/hr/mg of protein | 0.82 | 1.2 | substrate specificity of purified SADH (in words) [8]: lower rate; relative percent rate of oxidation [8]: 5%
CC(C)O [2-Propanol, 2-propanol] | 0.52 | 0.15 | 0.75 | 0.08 | 0.25 | 0.32 | 0.35 | 0.40 | 4.5 μmoles/hr/mg of protein | 5.2 μmoles/hr/mg of protein | 4.2 μmoles/hr/mg of protein | 4.9 μmoles/hr/mg of protein | 3.2 μmoles/hr/mg of protein | 4.5 μmoles/hr/mg of protein | 4.8 μmoles/hr/mg of protein | 4.0 μmoles/hr/mg of protein | 4.9 μmoles/hr/mg of protein | 4.0 μmoles/hr/mg of protein | 4.5 | 5.5 | substrate specificity of purified SADH (in words) [8]: highest; relative percent rate of oxidation [8]: 85%
CCC(C)O (stereo not shown) [2-Butanol, 2-butanol] | 1.5 | 0.84 | 0.70 | 0.60 | 1.0 | 1.1 | 0.40 | 0.39 | 6.2 μmoles/hr/mg of protein | 6.8 μmoles/hr/mg of protein | 5.1 μmoles/hr/mg of protein | 6.9 μmoles/hr/mg of protein | 2.1 μmoles/hr/mg of protein | 5.7 μmoles/hr/mg of protein | 5.9 μmoles/hr/mg of protein | 5.4 μmoles/hr/mg of protein | 5.9 μmoles/hr/mg of protein | 4.2 μmoles/hr/mg of protein | 4.92 | 6.2 | specific activities ([6]; spectrophotometric, 2-butanol as substrate): 78 nmoles NAD^+ reduced per min. per mg. protein; substrate specificity of purified SADH (in words) [8]: highest
